Our source for the viability, T/C values is PubChem BioAssay AID1963984 (Molecular Pharmacology Branch, DTP, NCI, 2024).

What is called viability, T/C is the result in the treated group divided by that in the control group, in per cent.
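Further: spheroids exposed to agents for seven days before readout; percent viability relative to DMSO vehicle control taken as 100%.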

The first assay deals with 233499-124-R-J3-PDC spheroids with HUVEC/MSC, viability. In words: Anticancer human tumor 233499-124-R-J3-PDC patient-derived colon adenocarcinoma cell line growth inhibition [PI3K]. The conditions noted are these: second compound 0.316 µM; first compound 1 µM; active compounds read low. Summed up:
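Tumor cells were combined with HUVEC and MSCs into spheroids, then dosed with PI3K-inhibitor combinations over half-log ranges capped near clinical Cmax or 10 microM.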
With `C=CC(=O)N1CCN(c2nc(=O)n(-c3c(C)ccnc3C(C)C)c3nc(-c4c(O)cccc4F)c(F)cc23)C(C)C1` (configuration not stated) + Cc1nc(NC(=O)N2CCCC2C(N)=O)sc1-c1ccnc(C(C)(C)C(F)(F)F)c1, the viability, T/C is 82.2%.
Still for that read-out and setting: the value for `CC(Cn1ccc(-c2ccc(C#N)c(Cl)c2)n1)NC(=O)c1cc(C(C)O)[nH]n1` (configuration not stated) + Cc1nc(NC(=O)N2CCCC2C(N)=O)sc1-c1ccnc(C(C)(C)C(F)(F)F)c1 was 100%; that for `Cn1ncc(Cl)c1-c1cc(C(=O)NC(CN)Cc2cccc(F)c2)sc1Cl` (configuration not stated) + Cc1nc(NC(=O)N2CCCC2C(N)=O)sc1-c1ccnc(C(C)(C)C(F)(F)F)c1 was 64.4%.
The same measure, in the same setting: as for `Cn1nccc1Nc1nccc(-c2ccn(C(CO)c3ccc(Cl)c(F)c3)c(=O)c2)n1` (configuration not stated) + Cc1nc(NC(=O)N2CCCC2C(N)=O)sc1-c1ccnc(C(C)(C)C(F)(F)F)c1, the figure is 65.7%.

Staying with this assay, now noted: second compound 0.316 µM; first compound 3.16 µM; active compounds read low.
`C=CC(=O)N1CCN(c2nc(=O)n(-c3c(C)ccnc3C(C)C)c3nc(-c4c(O)cccc4F)c(F)cc23)C(C)C1` (configuration not stated) + Cc1nc(NC(=O)N2CCCC2C(N)=O)sc1-c1ccnc(C(C)(C)C(F)(F)F)c1: the viability, T/C was 67.5%.
On to `CC(Cn1ccc(-c2ccc(C#N)c(Cl)c2)n1)NC(=O)c1cc(C(C)O)[nH]n1` (configuration not stated) + Cc1nc(NC(=O)N2CCCC2C(N)=O)sc1-c1ccnc(C(C)(C)C(F)(F)F)c1, for which the viability, T/C was 86.7%.
Regarding `Cn1ncc(Cl)c1-c1cc(C(=O)NC(CN)Cc2cccc(F)c2)sc1Cl` (configuration not stated) + Cc1nc(NC(=O)N2CCCC2C(N)=O)sc1-c1ccnc(C(C)(C)C(F)(F)F)c1, the viability, T/C was 62.1%.
Still for that read-out and setting: as for `Cn1nccc1Nc1nccc(-c2ccn(C(CO)c3ccc(Cl)c(F)c3)c(=O)c2)n1` (configuration not stated) + Cc1nc(NC(=O)N2CCCC2C(N)=O)sc1-c1ccnc(C(C)(C)C(F)(F)F)c1, the figure is 57.7%.

Staying with this assay, now noted: second compound 0.316 µM; first compound 10 µM; active compounds read low.
`C=CC(=O)N1CCN(c2nc(=O)n(-c3c(C)ccnc3C(C)C)c3nc(-c4c(O)cccc4F)c(F)cc23)C(C)C1` (configuration not stated) + Cc1nc(NC(=O)N2CCCC2C(N)=O)sc1-c1ccnc(C(C)(C)C(F)(F)F)c1: the viability, T/C is 92.6%.
On the same count and under the same terms, as for `CC(Cn1ccc(-c2ccc(C#N)c(Cl)c2)n1)NC(=O)c1cc(C(C)O)[nH]n1` (configuration not stated) + Cc1nc(NC(=O)N2CCCC2C(N)=O)sc1-c1ccnc(C(C)(C)C(F)(F)F)c1, the figure is 77.6%; as for `Cn1ncc(Cl)c1-c1cc(C(=O)NC(CN)Cc2cccc(F)c2)sc1Cl` (configuration not stated) + Cc1nc(NC(=O)N2CCCC2C(N)=O)sc1-c1ccnc(C(C)(C)C(F)(F)F)c1, 27.7%.
Same read-out and setting: the value for `Cn1nccc1Nc1nccc(-c2ccn(C(CO)c3ccc(Cl)c(F)c3)c(=O)c2)n1` (configuration not stated) + Cc1nc(NC(=O)N2CCCC2C(N)=O)sc1-c1ccnc(C(C)(C)C(F)(F)F)c1 was 47.8%.

The same assay, now with this note: second compound 1 µM; first compound 0.0316 µM; active compounds read low.
As for `C=CC(=O)N1CCN(c2nc(=O)n(-c3c(C)ccnc3C(C)C)c3nc(-c4c(O)cccc4F)c(F)cc23)C(C)C1` (configuration not stated) + Cc1nc(NC(=O)N2CCCC2C(N)=O)sc1-c1ccnc(C(C)(C)C(F)(F)F)c1, the viability, T/C was 71.7%.
Still for that read-out and setting: as for `CC(Cn1ccc(-c2ccc(C#N)c(Cl)c2)n1)NC(=O)c1cc(C(C)O)[nH]n1` (configuration not stated) + Cc1nc(NC(=O)N2CCCC2C(N)=O)sc1-c1ccnc(C(C)(C)C(F)(F)F)c1, the figure is 77.2%.
With `Cn1ncc(Cl)c1-c1cc(C(=O)NC(CN)Cc2cccc(F)c2)sc1Cl` (configuration not stated) + Cc1nc(NC(=O)N2CCCC2C(N)=O)sc1-c1ccnc(C(C)(C)C(F)(F)F)c1, the viability, T/C was 81.9%.
As for `Cn1nccc1Nc1nccc(-c2ccn(C(CO)c3ccc(Cl)c(F)c3)c(=O)c2)n1` (configuration not stated) + Cc1nc(NC(=O)N2CCCC2C(N)=O)sc1-c1ccnc(C(C)(C)C(F)(F)F)c1, the viability, T/C is 89.2%.

Still in this assay, the particulars now being: second compound 1 µM; first compound 0.1 µM; active compounds read low.
Consider `C=CC(=O)N1CCN(c2nc(=O)n(-c3c(C)ccnc3C(C)C)c3nc(-c4c(O)cccc4F)c(F)cc23)C(C)C1` (configuration not stated) + Cc1nc(NC(=O)N2CCCC2C(N)=O)sc1-c1ccnc(C(C)(C)C(F)(F)F)c1, for which the viability, T/C is 92.2%.
As to `CC(Cn1ccc(-c2ccc(C#N)c(Cl)c2)n1)NC(=O)c1cc(C(C)O)[nH]n1` (configuration not stated) + Cc1nc(NC(=O)N2CCCC2C(N)=O)sc1-c1ccnc(C(C)(C)C(F)(F)F)c1, the viability, T/C is 76.5%.
On the same count and under the same terms, the value for `Cn1ncc(Cl)c1-c1cc(C(=O)NC(CN)Cc2cccc(F)c2)sc1Cl` (configuration not stated) + Cc1nc(NC(=O)N2CCCC2C(N)=O)sc1-c1ccnc(C(C)(C)C(F)(F)F)c1 was 74.3%.
The same measure, in the same setting: as for `Cn1nccc1Nc1nccc(-c2ccn(C(CO)c3ccc(Cl)c(F)c3)c(=O)c2)n1` (configuration not stated) + Cc1nc(NC(=O)N2CCCC2C(N)=O)sc1-c1ccnc(C(C)(C)C(F)(F)F)c1, the figure is 81.5%.

The same assay, now with this note: second compound 1 µM; first compound 0.316 µM; active compounds read low.
In the case of `C=CC(=O)N1CCN(c2nc(=O)n(-c3c(C)ccnc3C(C)C)c3nc(-c4c(O)cccc4F)c(F)cc23)C(C)C1` (configuration not stated) + Cc1nc(NC(=O)N2CCCC2C(N)=O)sc1-c1ccnc(C(C)(C)C(F)(F)F)c1, the viability, T/C was 79.4%.
With `CC(Cn1ccc(-c2ccc(C#N)c(Cl)c2)n1)NC(=O)c1cc(C(C)O)[nH]n1` (configuration not stated) + Cc1nc(NC(=O)N2CCCC2C(N)=O)sc1-c1ccnc(C(C)(C)C(F)(F)F)c1, the viability, T/C was 83.7%.
Still for that read-out and setting: as for `Cn1ncc(Cl)c1-c1cc(C(=O)NC(CN)Cc2cccc(F)c2)sc1Cl` (configuration not stated) + Cc1nc(NC(=O)N2CCCC2C(N)=O)sc1-c1ccnc(C(C)(C)C(F)(F)F)c1, the figure is 72.7%.
The same measure, in the same setting: the value for `Cn1nccc1Nc1nccc(-c2ccn(C(CO)c3ccc(Cl)c(F)c3)c(=O)c2)n1` (configuration not stated) + Cc1nc(NC(=O)N2CCCC2C(N)=O)sc1-c1ccnc(C(C)(C)C(F)(F)F)c1 was 31.1%.

Still in this assay, the particulars now being: second compound 1 µM; first compound 1 µM; active compounds read low.
On to `C=CC(=O)N1CCN(c2nc(=O)n(-c3c(C)ccnc3C(C)C)c3nc(-c4c(O)cccc4F)c(F)cc23)C(C)C1` (configuration not stated) + Cc1nc(NC(=O)N2CCCC2C(N)=O)sc1-c1ccnc(C(C)(C)C(F)(F)F)c1, for which the viability, T/C was 77.3%.
Take `CC(Cn1ccc(-c2ccc(C#N)c(Cl)c2)n1)NC(=O)c1cc(C(C)O)[nH]n1` (configuration not stated) + Cc1nc(NC(=O)N2CCCC2C(N)=O)sc1-c1ccnc(C(C)(C)C(F)(F)F)c1: the viability, T/C was 50.5%.
Turning to `Cn1ncc(Cl)c1-c1cc(C(=O)NC(CN)Cc2cccc(F)c2)sc1Cl` (configuration not stated) + Cc1nc(NC(=O)N2CCCC2C(N)=O)sc1-c1ccnc(C(C)(C)C(F)(F)F)c1, the viability, T/C is 75.2%.
On the same count and under the same terms, the value for `Cn1nccc1Nc1nccc(-c2ccn(C(CO)c3ccc(Cl)c(F)c3)c(=O)c2)n1` (configuration not stated) + Cc1nc(NC(=O)N2CCCC2C(N)=O)sc1-c1ccnc(C(C)(C)C(F)(F)F)c1 was 57.6%.

Still in this assay, the particulars now being: second compound 1 µM; first compound 3.16 µM; active compounds read low.
Regarding `C=CC(=O)N1CCN(c2nc(=O)n(-c3c(C)ccnc3C(C)C)c3nc(-c4c(O)cccc4F)c(F)cc23)C(C)C1` (configuration not stated) + Cc1nc(NC(=O)N2CCCC2C(N)=O)sc1-c1ccnc(C(C)(C)C(F)(F)F)c1, the viability, T/C was 80.9%.
Take `CC(Cn1ccc(-c2ccc(C#N)c(Cl)c2)n1)NC(=O)c1cc(C(C)O)[nH]n1` (configuration not stated) + Cc1nc(NC(=O)N2CCCC2C(N)=O)sc1-c1ccnc(C(C)(C)C(F)(F)F)c1: the viability, T/C is 63.6%.
As to `Cn1ncc(Cl)c1-c1cc(C(=O)NC(CN)Cc2cccc(F)c2)sc1Cl` (configuration not stated) + Cc1nc(NC(=O)N2CCCC2C(N)=O)sc1-c1ccnc(C(C)(C)C(F)(F)F)c1, the viability, T/C is 45.3%.
Still for that read-out and setting: the value for `Cn1nccc1Nc1nccc(-c2ccn(C(CO)c3ccc(Cl)c(F)c3)c(=O)c2)n1` (configuration not stated) + Cc1nc(NC(=O)N2CCCC2C(N)=O)sc1-c1ccnc(C(C)(C)C(F)(F)F)c1 was 52.3%.

The assay is the same for the next values; noted with them: second compound 1 µM; first compound 10 µM; active compounds read low.
Turning to `C=CC(=O)N1CCN(c2nc(=O)n(-c3c(C)ccnc3C(C)C)c3nc(-c4c(O)cccc4F)c(F)cc23)C(C)C1` (configuration not stated) + Cc1nc(NC(=O)N2CCCC2C(N)=O)sc1-c1ccnc(C(C)(C)C(F)(F)F)c1, the viability, T/C was 79.8%.
Regarding `CC(Cn1ccc(-c2ccc(C#N)c(Cl)c2)n1)NC(=O)c1cc(C(C)O)[nH]n1` (configuration not stated) + Cc1nc(NC(=O)N2CCCC2C(N)=O)sc1-c1ccnc(C(C)(C)C(F)(F)F)c1, the viability, T/C was 81.9%.
As to `Cn1ncc(Cl)c1-c1cc(C(=O)NC(CN)Cc2cccc(F)c2)sc1Cl` (configuration not stated) + Cc1nc(NC(=O)N2CCCC2C(N)=O)sc1-c1ccnc(C(C)(C)C(F)(F)F)c1, the viability, T/C is 18.7%.
For the molecule `Cn1nccc1Nc1nccc(-c2ccn(C(CO)c3ccc(Cl)c(F)c3)c(=O)c2)n1` (configuration not stated) + Cc1nc(NC(=O)N2CCCC2C(N)=O)sc1-c1ccnc(C(C)(C)C(F)(F)F)c1, the viability, T/C was 64.8%.

Staying with this assay, now noted: second compound 3.16 µM; first compound 0.0316 µM; active compounds read low.
With `C=CC(=O)N1CCN(c2nc(=O)n(-c3c(C)ccnc3C(C)C)c3nc(-c4c(O)cccc4F)c(F)cc23)C(C)C1` (configuration not stated) + Cc1nc(NC(=O)N2CCCC2C(N)=O)sc1-c1ccnc(C(C)(C)C(F)(F)F)c1, the viability, T/C was 39.4%.
On to `CC(Cn1ccc(-c2ccc(C#N)c(Cl)c2)n1)NC(=O)c1cc(C(C)O)[nH]n1` (configuration not stated) + Cc1nc(NC(=O)N2CCCC2C(N)=O)sc1-c1ccnc(C(C)(C)C(F)(F)F)c1, for which the viability, T/C was 61.8%.
On the same count and under the same terms, the value for `Cn1ncc(Cl)c1-c1cc(C(=O)NC(CN)Cc2cccc(F)c2)sc1Cl` (configuration not stated) + Cc1nc(NC(=O)N2CCCC2C(N)=O)sc1-c1ccnc(C(C)(C)C(F)(F)F)c1 was 62%; that for `Cn1nccc1Nc1nccc(-c2ccn(C(CO)c3ccc(Cl)c(F)c3)c(=O)c2)n1` (configuration not stated) + Cc1nc(NC(=O)N2CCCC2C(N)=O)sc1-c1ccnc(C(C)(C)C(F)(F)F)c1 was 68.2%.

The same assay, now with this note: second compound 3.16 µM; first compound 0.1 µM; active compounds read low.
`C=CC(=O)N1CCN(c2nc(=O)n(-c3c(C)ccnc3C(C)C)c3nc(-c4c(O)cccc4F)c(F)cc23)C(C)C1` (configuration not stated) + Cc1nc(NC(=O)N2CCCC2C(N)=O)sc1-c1ccnc(C(C)(C)C(F)(F)F)c1: the viability, T/C is 51.1%.
On the same count and under the same terms, the value for `CC(Cn1ccc(-c2ccc(C#N)c(Cl)c2)n1)NC(=O)c1cc(C(C)O)[nH]n1` (configuration not stated) + Cc1nc(NC(=O)N2CCCC2C(N)=O)sc1-c1ccnc(C(C)(C)C(F)(F)F)c1 was 53.8%.
